Measurements reported in ChEMBL document CHEMBL1629445, “Synthesis and evaluation of azetidinone analogues of combretastatin A-4 as tubulin targeting agents” (J Med Chem, 2010).

What was measured:
MDA-MB-231 = assay: Antiproliferative activity against human MDA-MB-231 cells after 72 hrs by MTT assay; format: functional, cell-based; details: MDA-MB-231, 72 h
MCF7 = assay: cells; details: Homo sapiens, MCF7, 72 h
[1] = Cytotoxicity against in CD1 mouse mammary epithelial cells after 72 hrs by alamar blue dye assay; format: cell-based; details: CD1, Epithelial cell
[2] = Growth inhibition of human NCI60 cells; format: functional

SMILES | IC50 (MDA-MB-231) [nM] | IC50 (MCF7) [nM] | IC50 [1] [µM] | GI50 [2] [nM]
COc1ccc([C@@H]2[C@@H](c3ccc(F)cc3)C(=O)N2c2cc(OC)c(OC)c(OC)c2)cc1 | 228 | 42.3 |  | 
COc1ccc([C@@H]2[C@@H](c3ccc(Br)cc3)C(=O)N2c2cc(OC)c(OC)c(OC)c2)cc1 |  | 420 |  | 
COC(=O)C(c1ccccc1)[C@H](Nc1cc(OC)c(OC)c(OC)c1)c1ccc(OC)c(O)c1 (some centres not stated) |  | > 100000 |  | 
COc1ccc([C@@H]2[C@@H](c3ccc(F)cc3)C(=O)N2c2cc(OC)c(OC)c(OC)c2)cc1N | 80.8 | 55.3 |  | 
COc1ccc([C@@H]2[C@@H](c3cc(OC)c(OC)c(OC)c3)C(=O)N2c2cc(OC)c(OC)c(OC)c2)cc1 |  | 7120 |  | 
COc1ccc([C@@H]2[C@@H](c3ccc(O)cc3)C(=O)N2c2cc(OC)c(OC)c(OC)c2)cc1 | 158 | 59.1 |  | 
COc1ccc([C@@H]2[C@@H](c3cccc(OC)c3)C(=O)N2c2cc(OC)c(OC)c(OC)c2)cc1 |  | 326 |  | 
COc1ccc([C@@H]2[C@@H](c3ccc(Cl)cc3)C(=O)N2c2cc(OC)c(OC)c(OC)c2)cc1 |  | 305 |  | 
COc1ccc([C@@H]2[C@@H](c3ccc(O)cc3)C(=O)N2c2cc(OC)c(OC)c(OC)c2)cc1N | 1680 | 39.5 |  | 
COc1ccc([C@@H]2[C@@H](c3ccccc3)C(=O)N2c2cc(OC)c(OC)c(OC)c2)cc1N | 429 | 65.3 |  | 
COc1ccc(N2C(=O)[C@H](c3ccccc3)[C@H]2c2cc(OC)c(OC)c(OC)c2)cc1 |  | 43100 |  | 
COc1ccc([C@@H]2[C@@H](c3ccc(C(F)(F)F)cc3)C(=O)N2c2cc(OC)c(OC)c(OC)c2)cc1 |  | 1660 |  | 
COc1ccc([C@H]2C(=O)N(c3ccccc3)[C@@H]2c2cc(OC)c(OC)c(OC)c2)cc1 |  | 37800 |  | 
COc1ccc([C@@H]2[C@@H](c3ccc(F)cc3)C(=O)N2c2cc(OC)c(OC)c(OC)c2)cc1O | 107 | 65.7 |  | 
COc1ccc([C@@H]2[C@@H](c3cc(OC)c(OC)c(OC)c3)C(=O)N2c2ccccc2)cc1 |  | 43100 |  | 
COc1ccc([C@@H]2[C@@H](c3ccc(O)cc3)C(=O)N2c2cc(OC)c(OC)c(OC)c2)cc1O | 176 | 0.8 | > 10 | 
COc1ccc([C@@H]2[C@@H](c3ccccc3)C(=S)N2c2cc(OC)c(OC)c(OC)c2)cc1 |  | 720 |  | 
COc1ccc([C@@H]2[C@@H](c3ccc(SC)cc3)C(=O)N2c2cc(OC)c(OC)c(OC)c2)cc1 |  | 448 |  | 

SMILES | IC50 (MDA-MB-231) [nM] | IC50 (MCF7) [nM] | IC50 [1] [µM] | GI50 [2] [nM]
COc1ccc([C@@H]2[C@@H](c3ccc(OCc4ccccc4)cc3)C(=O)N2c2cc(OC)c(OC)c(OC)c2)cc1 |  | 7990 |  | 
COc1ccc([C@@H]2[C@@H](c3ccc(N)cc3)C(=O)N2c2cc(OC)c(OC)c(OC)c2)cc1 | 224 | 50.8 |  | 
COc1ccc([C@@H]2[C@@H](c3ccc(N)cc3)C(=O)N2c2cc(OC)c(OC)c(OC)c2)cc1N |  | 30.9 |  | 
COc1ccc([C@@H]2[C@@H](c3ccccc3)C(=O)N2c2cc(OC)c(OC)c(OC)c2)cc1 | 78.2 | 34.4 |  | 
COc1ccc([C@@H]2[C@@H](c3ccccc3)C(=O)N2c2cc(OC)c(OC)c(OC)c2)cc1[N+](=O)[O-] |  | 466 |  | 
COc1ccc([C@@H]2[C@@H](c3ccccc3OC)C(=O)N2c2cc(OC)c(OC)c(OC)c2)cc1 |  | 700 |  | 
COc1ccc([C@H]2C(=O)N(c3cc(OC)c(OC)c(OC)c3)[C@@H]2c2ccc(OC)cc2)cc1 |  | 182 |  | 210
COc1ccc([C@@H]2[C@@H](c3ccc(N)cc3)C(=O)N2c2cc(OC)c(OC)c(OC)c2)cc1O |  | 4.5 |  | 
COc1ccc([C@@H](Nc2cc(OC)c(OC)c(OC)c2)[C@@H](CO)c2ccccc2)cc1O |  | 24600 |  | 
COc1ccc(/C=C\c2cc(OC)c(OC)c(OC)c2)cc1O [COMBRETASTATIN A4] | 43 | 5.2 | > 10 | 
COc1ccc([C@@H]2[C@@H](c3ccc(C)cc3)C(=O)N2c2cc(OC)c(OC)c(OC)c2)cc1 |  | 315 |  | 
COc1ccc([C@@H]2[C@@H](c3ccccc3)C(=O)N2c2cc(OC)c(OC)c(OC)c2)cc1O | 28.8 | 9.6 | > 10 | 24
COc1ccc([C@@H]2[C@@H](c3ccc(F)c(F)c3)C(=O)N2c2cc(OC)c(OC)c(OC)c2)cc1 |  | 314 |  | 
COc1ccc([C@@H]2[C@@H](c3cccc(O)c3)C(=O)N2c2cc(OC)c(OC)c(OC)c2)cc1 |  | 68.9 |  | 
COc1ccc([C@@H]2[C@@H](c3ccc(Cl)c(Cl)c3)C(=O)N2c2cc(OC)c(OC)c(OC)c2)cc1 |  | 3360 |  | 
COc1ccc([C@@H]2[C@@H](c3ccc(OC)c(OC)c3)C(=O)N2c2cc(OC)c(OC)c(OC)c2)cc1 |  | 223 |  | 
COc1ccc([C@@H]2[C@@H](c3ccc(F)cc3)C(=O)N2c2cc(OC)c(OC)c(OC)c2)cc1[N+](=O)[O-] |  | 1360 |  | 
COc1ccc([C@@H]2[C@@H](c3ccc([N+](=O)[O-])cc3)C(=O)N2c2cc(OC)c(OC)c(OC)c2)cc1 |  | 486 |  | 
